From ChEMBL document CHEMBL3112562, “Structure-activity relationships of N-substituted 4-(trifluoromethoxy)benzamidines with affinity for GluN2B-containing NMDA receptors” (Bioorg Med Chem Lett, 2014)

Molecular target: Glutamate receptor ionotropic, NMDA 2B (Rattus norvegicus, UniProt Q00960)
Assay: Displacement of [3H]ifenprodil from Wistar rat GluN2B receptor after 2 hrs by liquid scintillation spectrometry

Sequence of Glutamate receptor ionotropic, NMDA 2B (Q00960 whole entry): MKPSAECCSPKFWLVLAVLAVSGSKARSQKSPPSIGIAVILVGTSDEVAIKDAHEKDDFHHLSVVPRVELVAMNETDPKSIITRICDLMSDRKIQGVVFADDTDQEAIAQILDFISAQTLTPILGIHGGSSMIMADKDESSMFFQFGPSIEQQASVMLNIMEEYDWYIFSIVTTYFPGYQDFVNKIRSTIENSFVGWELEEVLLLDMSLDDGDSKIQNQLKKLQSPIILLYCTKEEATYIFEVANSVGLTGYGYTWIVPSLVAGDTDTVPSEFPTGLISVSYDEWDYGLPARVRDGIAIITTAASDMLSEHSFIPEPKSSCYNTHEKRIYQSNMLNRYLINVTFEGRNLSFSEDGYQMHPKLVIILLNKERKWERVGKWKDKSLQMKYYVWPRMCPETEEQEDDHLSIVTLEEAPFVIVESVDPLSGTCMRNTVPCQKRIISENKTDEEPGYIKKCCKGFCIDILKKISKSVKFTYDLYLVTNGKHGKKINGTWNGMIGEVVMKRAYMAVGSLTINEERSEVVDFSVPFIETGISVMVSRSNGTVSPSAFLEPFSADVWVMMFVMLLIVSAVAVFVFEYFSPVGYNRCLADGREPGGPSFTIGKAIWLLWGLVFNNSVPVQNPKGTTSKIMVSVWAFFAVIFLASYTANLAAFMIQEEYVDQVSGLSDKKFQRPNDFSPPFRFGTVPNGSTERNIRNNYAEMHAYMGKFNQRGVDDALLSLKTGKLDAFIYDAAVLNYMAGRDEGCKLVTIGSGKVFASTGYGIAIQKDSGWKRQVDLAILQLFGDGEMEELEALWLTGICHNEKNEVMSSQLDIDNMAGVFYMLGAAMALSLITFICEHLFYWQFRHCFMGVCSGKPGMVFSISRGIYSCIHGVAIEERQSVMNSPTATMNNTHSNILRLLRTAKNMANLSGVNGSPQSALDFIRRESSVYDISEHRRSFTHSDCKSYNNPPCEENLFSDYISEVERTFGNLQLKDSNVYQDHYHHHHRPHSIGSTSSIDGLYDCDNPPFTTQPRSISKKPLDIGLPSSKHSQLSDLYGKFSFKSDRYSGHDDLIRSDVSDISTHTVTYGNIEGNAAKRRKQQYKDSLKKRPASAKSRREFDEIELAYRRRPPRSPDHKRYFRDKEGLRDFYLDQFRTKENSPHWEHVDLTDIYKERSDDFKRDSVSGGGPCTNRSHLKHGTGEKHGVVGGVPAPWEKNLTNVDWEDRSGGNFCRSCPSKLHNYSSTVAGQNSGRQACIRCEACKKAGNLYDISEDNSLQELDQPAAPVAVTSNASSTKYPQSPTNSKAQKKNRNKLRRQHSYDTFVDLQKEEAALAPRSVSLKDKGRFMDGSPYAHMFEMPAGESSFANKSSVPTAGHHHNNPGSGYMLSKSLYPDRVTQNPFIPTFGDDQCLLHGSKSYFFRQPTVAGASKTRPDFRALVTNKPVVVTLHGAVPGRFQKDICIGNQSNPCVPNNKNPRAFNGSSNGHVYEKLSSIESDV

Row | Ki [nM] | Compound
1 | 303 | COc1cccc(CNC(=N)c2ccc(OC(F)(F)F)cc2)c1OC
2 | 8.09 | NC(=NCc1ccccc1C(F)(F)F)c1ccc(OC(F)(F)F)cc1
3 | 16.2 | COc1ccc(CNC(=N)c2ccc(OC(F)(F)F)cc2)c(OC)c1
4 | 1140 | COc1cc(CN=C(N)c2ccc(OC(F)(F)F)cc2)cc(OC)c1OC
5 | 150 | N=C(NCC12C3C4C5C3C1C5C42)c1ccc(OC(F)(F)F)cc1 (stereo not drawn)
6 | 2.86 | N=C(NCc1cccc(F)c1)c1ccc(OC(F)(F)F)cc1
7 | 3.58 | NC(=NCc1cc(F)cc(F)c1)c1ccc(OC(F)(F)F)cc1
8 | 4810 | NC(=NCC12CC3CC(CC(C3)C1)C2)c1ccc(OC(F)(F)F)cc1
9 | 2.09 | COc1ccccc1C/N=C(\N)c1ccc(OC(F)(F)F)cc1
10 | 4.29 | COc1ccc(OC)c(CNC(=N)c2ccc(OC(F)(F)F)cc2)c1
11 | 26.3 | N=C(NCc1ccc2c(c1)OCO2)c1ccc(OC(F)(F)F)cc1
12 | 22.9 | COc1cc(CNC(=N)c2ccc(OC(F)(F)F)cc2)cc(OC)c1
13 | 8.25 | N=C(NCc1ccc(F)c(F)c1)c1ccc(OC(F)(F)F)cc1
